Assay results as given in ChEMBL document CHEMBL1121961, “Synthesis and biological evaluation of 6-ethynyluracil, a thiol-specific alkylating pyrimidine” (J Med Chem, 1982).

How the values were obtained:
Type in all cases: functional, cell-based
Settings in all cases: Mus musculus
B16 = assay: In vitro inhibitory activity against B16 melanoma cell lines
[1] = tested on: Lewis lung carcinoma cell line; assay: In vitro inhibitory activity against lewis lung cell lines
L1210 = assay: In vitro inhibitory activity against leukemia L1210 cell lines

| SMILES | Concentration (B16) [µM] | Concentration [1] [µM] | Concentration (L1210) [µM] |
| --- | --- | --- | --- |
| C#Cc1cc(O)nc(O)n1 | 10 | 20 | 7 |
| Oc1cc(/C=C/C(Br)Br)nc(O)n1 | 1 | 8 | 1 |
